Data taken from ChEMBL document CHEMBL3992543, “New quinolinic derivatives as melatonergic ligands: Synthesis and pharmacological evaluation” (Eur J Med Chem, 2017).

target: T1, Melatonin receptor type 1A (Homo sapiens, UniProt P48039); test: Displacement of 2-[125I]iodomelatonin from human MT1 receptor expressed in HEK or CHO cell membranes after 120 mins
T1 sequence (P48039 whole entry): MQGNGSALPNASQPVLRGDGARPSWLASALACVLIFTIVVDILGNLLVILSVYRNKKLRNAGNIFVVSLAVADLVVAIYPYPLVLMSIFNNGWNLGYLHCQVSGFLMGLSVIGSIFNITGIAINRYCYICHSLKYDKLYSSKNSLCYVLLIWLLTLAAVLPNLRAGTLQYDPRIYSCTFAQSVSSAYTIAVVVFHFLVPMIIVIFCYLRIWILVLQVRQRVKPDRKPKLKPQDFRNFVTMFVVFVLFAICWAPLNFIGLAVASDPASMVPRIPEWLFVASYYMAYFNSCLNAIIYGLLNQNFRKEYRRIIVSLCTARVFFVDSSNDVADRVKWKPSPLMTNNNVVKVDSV

Ki | SMILES
4 nM | CCNC(=S)NCCc1cccc2ccc(OC)nc12
690 nM | CCNC(=S)NCCc1cccc2ncc(OC)cc12
575 nM | CCNC(=O)NCCc1cccc2ncc(OC)cc12
2 nM | COc1ccc2cccc(CCNC(N)=O)c2n1
8 nM | CNC(=O)CCc1cccc2ccc(OC)nc12
315 nM | COc1cnc2cccc(CCNC(N)=O)c2c1
0.6 nM | CNC(=O)NCCc1cccc2ccc(OC)nc12
19 nM | COc1ccc2cccc(CCC(=O)NCCF)c2n1
60 nM | COc1cnc2cccc(CCNC(C)=O)c2c1
> 10000 nM | COC(=O)NCCc1cccc2ncc(OC)cc12
34 nM | COc1ccc2cccc(CCC(=O)NC3CC3)c2n1
2 nM | CNC(=S)NCCc1cccc2ccc(OC)nc12
0.8 nM | CCNC(=O)NCCc1cccc2ccc(OC)nc12
7 nM | COC(=O)NCCc1cccc2ccc(OC)nc12
58 nM | COc1ccc2ccc(CCNC(C)=O)cc2n1
0.3 nM | COc1ccc2cccc(CCNC(C)=O)c2n1
> 10000 nM | CNC(=S)NCCc1cccc2ncc(OC)cc12
124 nM | COc1cnc2cccc(CCNC(=O)C3CC3)c2c1

SMILES | Ki
COc1cnc2cccc(CCNC(=O)CF)c2c1 | 29 nM

target: T2, Melatonin receptor type 1B (Homo sapiens, UniProt P49286); test: Displacement of 2-[125I]iodomelatonin from human MT2 receptor expressed in HEK or CHO cell membranes after 120 mins
T2 sequence (P49286 whole entry): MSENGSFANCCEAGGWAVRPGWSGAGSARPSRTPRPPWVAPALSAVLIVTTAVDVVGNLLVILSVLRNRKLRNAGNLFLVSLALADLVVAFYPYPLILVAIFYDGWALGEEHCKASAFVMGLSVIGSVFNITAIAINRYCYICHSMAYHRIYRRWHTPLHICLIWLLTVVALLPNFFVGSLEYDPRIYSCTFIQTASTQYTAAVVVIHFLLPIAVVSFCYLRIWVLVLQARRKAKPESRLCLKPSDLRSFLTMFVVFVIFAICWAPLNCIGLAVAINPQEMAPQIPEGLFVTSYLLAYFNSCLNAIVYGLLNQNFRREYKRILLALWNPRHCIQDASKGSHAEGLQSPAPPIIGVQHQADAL

Ki | SMILES
0.4 nM | CCNC(=S)NCCc1cccc2ccc(OC)nc12
550 nM | CCNC(=S)NCCc1cccc2ncc(OC)cc12
73 nM | CCNC(=O)NCCc1cccc2ncc(OC)cc12
0.2 nM | COc1ccc2cccc(CCNC(N)=O)c2n1
0.3 nM | CNC(=O)CCc1cccc2ccc(OC)nc12
40 nM | COc1cnc2cccc(CCNC(N)=O)c2c1
0.09 nM | CNC(=O)NCCc1cccc2ccc(OC)nc12
0.3 nM | COc1ccc2cccc(CCC(=O)NCCF)c2n1
4 nM | COc1cnc2cccc(CCNC(C)=O)c2c1
430 nM | COC(=O)NCCc1cccc2ncc(OC)cc12
0.5 nM | COc1ccc2cccc(CCC(=O)NC3CC3)c2n1
0.1 nM | CNC(=S)NCCc1cccc2ccc(OC)nc12
0.09 nM | CCNC(=O)NCCc1cccc2ccc(OC)nc12
0.3 nM | COC(=O)NCCc1cccc2ccc(OC)nc12
22 nM | COc1ccc2ccc(CCNC(C)=O)cc2n1
0.2 nM | COc1ccc2cccc(CCNC(C)=O)c2n1
250 nM | CNC(=S)NCCc1cccc2ncc(OC)cc12
26 nM | COc1cnc2cccc(CCNC(=O)C3CC3)c2c1

SMILES | Ki
COc1cnc2cccc(CCNC(=O)CF)c2c1 | 6 nM

target: T1, Melatonin receptor type 1A; test: Intrinsic activity at human MT1 receptor expressed in CHO cell membranes after 1 hr by [35S]GTPgammaS binding assay; assay type: functional

EC50 | SMILES
31 nM | CCNC(=S)NCCc1cccc2ccc(OC)nc12
1620 nM | COc1ccc2cccc(CCNC(N)=O)c2n1
65 nM | CNC(=O)CCc1cccc2ccc(OC)nc12
19 nM | CNC(=O)NCCc1cccc2ccc(OC)nc12
90 nM | CNC(=S)NCCc1cccc2ccc(OC)nc12
9.5 nM | CCNC(=O)NCCc1cccc2ccc(OC)nc12
> 1000 nM | COC(=O)NCCc1cccc2ccc(OC)nc12
0.8 nM | COc1ccc2cccc(CCNC(C)=O)c2n1

target: T2, Melatonin receptor type 1B; test: Intrinsic activity at human MT2 receptor expressed in CHO cell membranes after 1 hr by [35S]GTPgammaS binding assay; assay type: functional

EC50 | SMILES
1.1 nM | CCNC(=S)NCCc1cccc2ccc(OC)nc12
0.2 nM | COc1ccc2cccc(CCNC(N)=O)c2n1
0.7 nM | CNC(=O)CCc1cccc2ccc(OC)nc12
0.09 nM | CNC(=O)NCCc1cccc2ccc(OC)nc12
0.1 nM | CNC(=S)NCCc1cccc2ccc(OC)nc12
0.2 nM | CCNC(=O)NCCc1cccc2ccc(OC)nc12
0.4 nM | COC(=O)NCCc1cccc2ccc(OC)nc12
0.2 nM | COc1ccc2cccc(CCNC(C)=O)c2n1

organism: Homo sapiens; test: Selectivity ratio of Ki for human MT1 receptor to Ki for human MT2 receptor

Ratio Ki | SMILES
27 | CNC(=O)CCc1cccc2ccc(OC)nc12
86 | COc1ccc2cccc(CCC(=O)NC3CC3)c2n1
